Data as given in BindingDB's records for doi:10.1016/j.chembiol.2003.11.012 (Universit&Agrave, 2003).

Experiments:
Experiment in all cases: Inhibition Assay
Settings in all cases: pH 7; 20 °C
[1] = biological target: Bifunctional dihydrofolate reductase-thymidylate synthase (Leishmania major, UniProt P07382)
Procedure: (§1) The inhibition assay pattern for all of the compounds was determined by steady-state kinetic analysis of the dependence of the TS enzyme activity on folate concentration at various concentration.

[2] = biological target: T1, Thymidylate synthase (Lacticaseibacillus casei, UniProt P00469)
T1 sequence (P00469 whole entry): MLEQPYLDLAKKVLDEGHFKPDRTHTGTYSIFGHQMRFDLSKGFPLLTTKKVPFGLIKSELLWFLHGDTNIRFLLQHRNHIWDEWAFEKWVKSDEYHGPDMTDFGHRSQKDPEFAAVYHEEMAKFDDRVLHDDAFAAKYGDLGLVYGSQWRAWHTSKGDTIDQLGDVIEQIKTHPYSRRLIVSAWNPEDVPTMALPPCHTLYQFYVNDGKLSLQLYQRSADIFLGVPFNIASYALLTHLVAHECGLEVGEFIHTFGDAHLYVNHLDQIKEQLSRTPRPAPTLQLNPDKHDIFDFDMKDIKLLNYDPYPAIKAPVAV
Procedure: as §1

[3] = biological target: Thymidylate synthase (Escherichia coli (strain K12), UniProt P0A884)
Procedure: as §1

[4] = biological target: Thymidylate synthase (Homo sapiens, UniProt P04818)
Procedure: as §1

[5] = biological target: T2, Thymidylate synthase (Pneumocystis carinii, UniProt P13100)
T2 sequence (P13100 whole entry): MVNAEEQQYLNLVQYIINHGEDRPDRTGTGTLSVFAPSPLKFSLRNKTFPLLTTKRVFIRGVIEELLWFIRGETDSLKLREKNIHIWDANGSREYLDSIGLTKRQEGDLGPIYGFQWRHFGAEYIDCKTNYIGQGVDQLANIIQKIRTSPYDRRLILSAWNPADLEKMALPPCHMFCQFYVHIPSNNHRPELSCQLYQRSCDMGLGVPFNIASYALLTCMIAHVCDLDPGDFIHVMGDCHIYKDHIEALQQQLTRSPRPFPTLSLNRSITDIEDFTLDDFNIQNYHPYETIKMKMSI
Procedure: as §1

Thymidylate synthase (Escherichia coli (strain K12), UniProt P0A884), sequence (P0A884 whole entry): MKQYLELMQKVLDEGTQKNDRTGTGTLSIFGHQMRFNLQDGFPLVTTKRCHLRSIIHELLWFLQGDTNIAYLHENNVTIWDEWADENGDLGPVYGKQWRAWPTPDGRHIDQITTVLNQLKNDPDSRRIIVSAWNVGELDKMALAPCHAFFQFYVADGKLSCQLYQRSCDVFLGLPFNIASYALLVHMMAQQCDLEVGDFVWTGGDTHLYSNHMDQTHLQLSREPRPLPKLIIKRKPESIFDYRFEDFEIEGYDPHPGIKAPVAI
Bifunctional dihydrofolate reductase-thymidylate synthase, sequence (P07382 whole entry): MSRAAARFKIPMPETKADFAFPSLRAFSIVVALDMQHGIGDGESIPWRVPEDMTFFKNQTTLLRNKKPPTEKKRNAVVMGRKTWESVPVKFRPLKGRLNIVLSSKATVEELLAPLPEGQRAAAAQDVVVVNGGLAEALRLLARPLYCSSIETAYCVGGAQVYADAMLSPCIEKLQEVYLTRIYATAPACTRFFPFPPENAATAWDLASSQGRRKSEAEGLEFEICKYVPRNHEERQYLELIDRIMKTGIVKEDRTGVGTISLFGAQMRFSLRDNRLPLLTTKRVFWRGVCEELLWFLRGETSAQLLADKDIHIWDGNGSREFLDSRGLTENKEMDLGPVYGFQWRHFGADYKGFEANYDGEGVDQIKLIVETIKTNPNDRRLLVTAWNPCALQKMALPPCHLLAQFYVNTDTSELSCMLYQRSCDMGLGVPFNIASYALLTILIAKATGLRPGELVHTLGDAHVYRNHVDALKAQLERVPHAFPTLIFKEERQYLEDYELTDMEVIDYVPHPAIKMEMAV
Thymidylate synthase (Homo sapiens, UniProt P04818), sequence (P04818 whole entry): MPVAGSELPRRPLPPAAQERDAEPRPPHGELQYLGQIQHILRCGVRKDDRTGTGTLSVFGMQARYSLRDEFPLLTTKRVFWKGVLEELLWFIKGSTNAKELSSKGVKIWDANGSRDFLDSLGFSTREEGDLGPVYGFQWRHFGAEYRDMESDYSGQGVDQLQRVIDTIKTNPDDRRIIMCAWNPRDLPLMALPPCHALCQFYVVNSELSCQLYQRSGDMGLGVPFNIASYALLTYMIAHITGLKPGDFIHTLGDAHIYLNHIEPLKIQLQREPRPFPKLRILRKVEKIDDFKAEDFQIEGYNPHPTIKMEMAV

Ki [1] [µM] | Ki [2] [µM] | Ki [3] [µM] | Ki [4] [µM] | Ki [5] [µM] | SMILES
> 1780 |  |  |  |  | O=C1OC(c2ccc(O)c(F)c2)(c2ccc(O)c(F)c2)c2cccc3cccc1c23 [Phenolnaphthalein derivative, 1]
0.08 |  |  |  |  | C#CCN(Cc1ccc2nc(N)[nH]c(=O)c2c1)c1ccc(C(=O)N[C@@H](CCC(=O)O)C(=O)O)cc1
> 1080 | 1.8 | 1.1 | > 245 | 22 | O=C1OC(c2ccc(O)c(F)c2)(c2ccc(O)c(F)c2)c2ccc(Cl)c3cccc1c23 [Phenolnaphthalein derivative, 3]
63 |  | 0.9 | > 132 | > 132 | O=C1OC(c2ccc(O)c(Br)c2)(c2ccc(O)c(Br)c2)c2c1ccc1ccccc21 [Phenolnaphthalein derivative, 4]
> 1080 |  |  |  |  | O=C1OC(c2ccc(O)c(Cl)c2)(c2ccc(O)c(Cl)c2)c2cccc3cccc1c23
> 1080 | 0.8 | 4.1 | > 245 | 28 | O=C1OC(c2ccc(O)c(Br)c2)(c2ccc(O)c(Br)c2)c2ccc(Cl)c3cccc1c23 [Phenolnaphthalein derivative, 2]
41 |  |  | > 245 | 32.7 | O=C1OC(c2cc(Br)c(O)c(Br)c2)(c2cc(Br)c(O)c(Br)c2)c2c1ccc1ccccc21 [Phenolnaphthalein derivative, 5]
